SMILES strings stand for the structures.

Assay [1] has as its system platelets. Briefly: Platelet disaggregation 10 minutes after ADP. The following applies: 1.0 mg/ml. The assay is classed as cell-based, rabbit. As for the experimental part:
Platelet enriched rabbit plasma has been used to assess the platelet anti-aggregating and disaggregating properties of Syringa vulgaris Extract 1, verbascoside and isoverbascoside. Platelet rich plasma has been obtained from rabbit venous blood by mixing it with a 3.8% sodium citrate solution (9:1 v/v). The solution has then been centrifuged at 460×g for 20 minutes. The supernatant has been collected and immediately used for the aggregation assays. Platelet aggregation has been recorded using a Chronolog “Ionised calcium platelet aggregometer” (Chrono-log Co., USA). All measurements have been performed at 37° C. with continuous stirring. […] Then 10 μl of a solution of ADP (final concentration—10 μm) has been added and the luminous transmittance continuously recorded. The results are expressed as the DÒ/DÒÊ ratio, where DÒÊ and DÒ are the luminous transmittance values, in the absence and presence of extract respectively. Platelet disaggregation (the disappearance of pre formed aggregates) has been determined using the same luminous transmittance curve 10 minutes following the addition of ADP. The results are expressed as the DR/DRk ratio, where DRk and DR, are the luminous transmittance in the absence and presence of extract. […]

Assay [2] is described as follows: Metal chelating activity (spectrophotometric), Fe2+. It counts as binding. The following applies: chelation equilibrium constant, calculated for a pure phenylpropanoid. The text has this: (§1) The chelating activities of Syringa vulgaris extracts, verbascoside and isoverbascoside in relation to Fe^2+, Fe^3+, Cu^2+ and Ni^2+ metal ions has been determined by means of spectrophotometric measurements using a Shimadzu 1770 UV spectrophotometer. The activities of chelating agents depends on the association constant (equilibrium) of their reactions with the metals according to the following reaction:
(§2) [formula] wherein Keq is the equilibrium constant equal to the ratio of concentrations at equilibrium of a complex and product of equilibrium concentrations of metal ions and a chelator:
(§3) [formula] The method used for determining chelating activity is well documented in the literature (Korkina L G, Afarras'er IB. Antioxidant and chelating properties of flavonoids. Adv. Pharmacol., 1997, 38:151-63). The results are expressed as Keg (M^−1) calculated for a pure phenylpropanoid. This way the chelating activity against ferrous (Fe II), ferric (Fe III), copper (Cu II) and nickel ions has been calculated.

Assay [3] is described as follows: Metal chelating activity (spectrophotometric), Fe3+. It counts as binding. The following applies: chelation equilibrium constant, calculated for a pure phenylpropanoid.
Description: as §1, §2, §3

Assay [4] is described as follows: Metal chelating activity (spectrophotometric), Cu2+. It counts as binding. The following applies: chelation equilibrium constant, calculated for a pure phenylpropanoid.
Description: as §1, §2, §3

Assay [5] can be described thus: Metal chelating activity (spectrophotometric), Ni2+. The assay is classed as binding. The following applies: chelation equilibrium constant, calculated for a pure phenylpropanoid.
Description: as §1, §2, §3

The target of assay [6] is T1, 5 alpha reductase type I (Homo sapiens, UniProt P18405).
T1 construct: made in house; host or cells: genetically modified yeast
T1 sequence (P18405 1-259): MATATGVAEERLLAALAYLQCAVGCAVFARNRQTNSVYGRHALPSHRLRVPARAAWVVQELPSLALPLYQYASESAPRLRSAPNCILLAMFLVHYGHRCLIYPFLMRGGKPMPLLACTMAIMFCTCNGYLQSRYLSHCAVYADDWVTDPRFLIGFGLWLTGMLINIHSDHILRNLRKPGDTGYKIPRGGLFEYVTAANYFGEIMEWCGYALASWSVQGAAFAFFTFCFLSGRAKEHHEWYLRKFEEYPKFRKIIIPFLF
The assay can be described thus: Type I 5 alpha reductase inhibition (14C testosterone conversion). It counts as biochemical. The following applies: pH 7.0. As for the experimental part: (§4) Determination of the 5 alpha reductase inhibitory activities by Syringa vulgaris extracts, verbascoside and isoverbascoside in comparison to Serenoa repens extracts. Said determination, has been performed using enzymes (5 alpha reductase, type I and type II) produced by genetically modified yeast. Enzyme activities have been determined in the presence of Syringa vulgaris and Serenoa repens extracts, verbascoside isoverbascoside.
Type I 5 alpha reductase activity has been assayed by incubating the enzyme in 0.1M Tris-citrate buffer (pH 7.0), containing 5 μM (^14C) radio-labelled testosterone (Amersham, Sweden) and 5 mM NADPH (Sigma) in a final volume of 5 ml. The solution thus obtained has been incubated for 1 hour at 37° C.
(§5) In both assays, the steroids have been extracted using 5 ml of methylene chloride. The extracts have then been dried under a stream of nitrogen and the dried residues obtained have, been dissolved in 20 μl of a chloroform-methanol mixture (2:1 v/v). […] For quantification of the results, the spots have been scraped from the TLC plate and extracted with 2 ml of ethyl acetate. The extracts obtained have been analysed, using scintillation fluid, with the aid of a Wallach […]. The enzyme activity has been calculated from the percentage conversion (C %) of the substrate into final product:
(§6) C %=[counted product/(counted substrate+product)]×100.

The target in assay [7] is T2, 5 alpha reductase type II (Homo sapiens, UniProt P31213).
T2 construct: made in house; host or cells: genetically modified yeast
T2 sequence (P31213 1-254): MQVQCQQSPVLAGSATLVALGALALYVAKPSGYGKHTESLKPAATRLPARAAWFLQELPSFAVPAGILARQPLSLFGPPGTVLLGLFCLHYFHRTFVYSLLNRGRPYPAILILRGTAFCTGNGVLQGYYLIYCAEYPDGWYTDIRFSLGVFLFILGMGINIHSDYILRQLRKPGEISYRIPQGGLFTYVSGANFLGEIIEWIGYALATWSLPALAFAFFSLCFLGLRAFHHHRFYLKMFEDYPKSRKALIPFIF
Briefly: Type II 5 alpha reductase inhibition (14C testosterone conversion). The assay is classed as biochemical. The following applies: pH 5.0.
Description: as §4
Determination of the type II 5 alpha reductase activity has been performed in an analogous manner to that just described, with the exception of a different pH value for the 0.1 M Tris-citrate buffer (pH 5.0).
as §5, with “v/v). An aliquot of said mixture has been deposited on the surface of a silica gel TLC plate.” for “v/v).”
as §6

In assay [8] the test system is tyrosinase. Briefly: Tyrosinase inhibition, conversion of L-DOPA to DOPAquinone. It counts as biochemical, Mushroom. The following applies: 100 μg/ml. The source says:
The enzyme tyrosinase catalyses the reactions leading to melanin biosynthesis from tyrosine. […] Substances inhibiting tyrosinase activity produce clearing/bleaching effect on the skin, since they block melanin synthesis. The method used to determine the inhibition of tyrosinase activity in the oxidation reaction of L-tyrosine to L-DOPA is that described in Kim et al. […] Biol. Pharm. Bull. 28(2), 323-327, 2005). The method applied for determination of the inhibition of tyrosinase activity in the conversion of L-DOPA to DOPAquinone is that described in Masamoto et al. (Mushroom tyrosinase inhibitory activity of esculetin isolated from seeds of Euphorbia lathyris L. Biosci. Biotechnol. Biochem., 67(3), 631-634, 2003).

The term IC50 denotes the concentration that gives 50% inhibition. Low readings indicate greater potency, high ones weaker potency. For the compound `CC1OC(OC2C(O)C(COC(=O)C=Cc3ccc(O)c(O)c3)OC(OCCc3ccc(O)c(O)c3)C2O)C(O)C(O)C1O` [Isoverbascoside, b-(3,4-dihydroxyphenyl)-ethyl-O-α-L-ramnopyranosyl(1″-3′)-b-D-(6′-O-caffeoil)glucopyranoside], in assay [1], the “Disaggregation (% with respect to control)” value is listed as 75 ± 21%. Also, the “Fe^2+ (Keq, M^−1)” value in assay [2] was 460000 ± 120000 M⁻¹. Moreover, the “Fe^3+ (Keq, M^−1)” value in assay [3] was 130000 ± 40000 M⁻¹. For the same compound, the “Cu^2+ (Keq, M^−1)” value in assay [4] is 130000 ± 60000 M⁻¹. Also, the “Ni^2+ (Keq, M^−1)” value in assay [5] is 1398 ± 362 M⁻¹. For the same compound, the concentration for half-maximal inhibition (IC50) in assay [6] is 19.2 µM; in assay [7] it was 32 µM. Moreover, the “Test LDOPA-DOPAquinone inhibitory activity (%)” value in assay [8] is given as 10%.

Turning to `C[C@@H]1O[C@@H](O[C@@H]2[C@@H](O)[C@H](OCCc3ccc(O)c(O)c3)O[C@H](CO)[C@H]2OC(=O)/C=C/c2ccc(O)c(O)c2)[C@H](O)[C@H](O)[C@H]1O` [Verbascoside, b-(3,4-dihydroxyphenyl)-ethyl-O-α-L-ramnopyranosyl (1″-3′)-b-D-(4′-O-caffeoil)-glucopyranoside], the “Disaggregation (% with respect to control)” value in assay [1] is on record as 73 ± 21%. Further, the “Fe^2+ (Keq, M^−1)” value in assay [2] was 450000 ± 110000 M⁻¹. The “Fe^3+ (Keq, M^−1)” value in assay [3] is 120000 ± 50000 M⁻¹. Also, in assay [4], the “Cu^2+ (Keq, M^−1)” value was 120000 ± 40000 M⁻¹. For the same compound, in assay [5], the “Ni^2+ (Keq, M^−1)” value was 1427 ± 319 M⁻¹. Besides, the IC50 in assay [6] is 20.8 µM; in assay [7], 33.6 µM. Also, the “Test LDOPA-DOPAquinone inhibitory activity (%)” value in assay [8] is 20.6%.

The values are drawn from US10456434B2, “Extracts obtained from cell line cultures from plants belonging to the Oleaceae family (e.g. Syringa vulgaris), their preparation and use” (CRODA ITALIANA S. P. A., priority 2005, dated 2019).
